Measurements reported in US12472160B2, “Modified-release tiopronin compositions, kits and methods for treating cystinuria and related disorders” (ALTIBIO, INC., priority 2017, dated 2025).
Blank lines part the entries; values can stand above or below the molecule they belong to.

Tests used:
[1] = Total and free plasma tiopronin and urinary tiopronin recovery in Beagle dogs after oral dosing by four regimens (Example 4); type: in vivo; conditions: for % of the dose (unchanged drug) found in urine / maximum plasma concentrations of free tiopronin / maximum plasma concentrations of total tiopronin: average, n=3 dogs; for free (unbound) tiopronin in plasma over time: FIG. 12
Procedure: (§1) The objective of this study was to evaluate total and free plasma tiopronin, and total urinary tiopronin, in an animal model (male Beagle dogs) following oral administration of tiopronin, according to various dose regimens, to determine whether different regimens, simulating modified release, would improve drug pharmacokinetics. Specifically, tiopronin formulations were administered to deliver 30 mg/kg per dog via single or multiple doses divided over a 12-hour period; and blood and urine samples then collected at different times post-dose.
Tiopronin formulations were administered to provide 30 mg/kg per dog according to four different dosage regimes (Leg 1, Leg 2, Leg 3, and Leg 4), as set forth in the table below. Leg 2, Leg 3, and Leg 4 (also referred to as Q6H, Q3H, and Q2H respectively) were designed to simulate modified-release formulations, in accordance with certain embodiments of the present invention. Following administration, blood and urine samples were collected at the time points, or over the time intervals, also as indicated below.
Preparation of Dosing Formulations: Capsules for Legs 1-4 were prepared and filled on the day of dosing, as follows. For Legs 1 and 2, tiopronin was dry mixed with avicel and mannitol to make a 40:30:30 mixture of tiopronin to avicel to mannitol, respectively; for study Legs 3 and 4, a 20:40:40 mixture of tiopronin to avicel to mannitol, respectively, was prepared. The dry mixes were custom filled with the appropriate amount of powder to deliver the specified doses to each dog based, on their respective body weights.
(§2) Animal Dosing and Sample Collection: This non-clinical study followed established practices and standard operating procedures of Absorption Systems and Absorption Systems Inc., as well as the study protocol. Study groups each included three dogs. The dogs were housed one per cage. The dogs were fasted for at least six hours prior to each administration of the formulation. Food was given approximately ten hours post initial dosing. Animals had free access to water throughout the study.
Following dosing, blood and urine samples were collected according to the schedule in Table 1.
Blood samples were collected via direct venipuncture of the jugular vein or other accessible vein of the dog, and placed in chilled polypropylene tubes containing sodium heparin as an anticoagulant. Samples were maintained chilled throughout processing. Blood samples were centrifuged at 4° C. and 3,000 rpm (revolutions per minute) for 5 minutes. The first aliquot of plasma was precipitated with methanol by combining 200 μL of plasma with 600 μL of methanol in a centrifuge tube. The samples were mixed, centrifuged at 3,000 rpm for 5 minutes. The resulting supernatant was decanted into clean, labeled polypropylene tubes. The remaining plasma volume was transferred to a chilled, labeled polypropylene tube, placed on dry ice, and stored in a freezer maintained at −60° C. to −80° C. Following taking each blood sample, 15 mL of water was given to the dog via syringe.
For study Leg 1, pre-dose urine samples were collected via free catch approximately 2 hours pre-dose. For study Legs 2, 3 and 4, pre-dose urine samples were collected via catheter approximately 2 hours pre-dose. Other urine samples were collected via free catch in the cages during the indicated interval, collected into clean bottles, and kept on cold packs. Cold packs were replenished as needed during the day. At the end of each interval, the total volume of urine was collected and recorded. Each sample was well mixed and divided into two aliquots: an approximately 5 mL first aliquot, and a second aliquot of the remaining volume. Additionally, for Leg 4 only, each dog received a 60 mL subcutaneous injection of saline (2×30 mL injections at two different sites) approximately 30 minutes prior to dosing and, if urine was not present in the animal's cage at the end of the final collection interval, the final urine sample was collected by catheter. […]

[2] = Total and free plasma tiopronin and urinary tiopronin recovery in Beagle dogs after intraduodenal administration (Example 5); type: in vivo
Procedure: as §1, with “intraduodenal” for “oral”, “tiopronin,” for “tiopronin, according to various dose regimens,”, “small intestine administration,” for “different regimens, simulating modified release,”, “dose;” for “or multiple doses divided over a 12-hour period;”
Tiopronin formulations were administered to provide 30 mg/kg per dog as one single intraduodenal dose. Following administration, blood and urine samples were collected at the time points, or over the time intervals, indicated below.
Preparation of Dosing Formulations: Capsules were prepared and filled on the day of dosing, as follows. Tiopronin was dry mixed with avicel and mannitol to make a 40:30:30 mixture of tiopronin to avicel to mannitol, respectively. The dry mixes were custom filled with the appropriate amount of powder to deliver the specified doses to each dog based, on their respective body weights.
as §2, with “sixteen” for “six”, “eight” for “ten”
Intraduodenal (ID) administration: Animals were anesthetized by a slow IV infusion of Propofol (6-10 mg/kg) or with an intramuscular injection of a cocktail containing ketamine (approximately 10-20 mg/kg), diazepam (3 mg/kg), and acepromazine (0.05 mg/kg) given IM about 5-10 minutes before intubation. Once animals were confirmed adequately anesthetized they were intubated and maintained using isoflurane (approximately 1-5% in oxygen 1 to 4 L/min) as necessary until dosing is complete. Formulations were administered into the proximal duodenum via endoscopic guidance to verify the dosing site. The endoscope first was maneuvered into the pyloric sphincter with camera visualization of the proximal duodenum. Once there was confirmation that the endoscope was placed between the pylorus and proximal duodenum, the test article was delivered to the proximal duodenum followed by a 5 mL flush. Upon completion of the dosing, the animals were taken off the isoflurane and allowed to recover from anesthesia. Time points began upon completion of the entire dose procedure. Following each blood sampling time point, 15 mL of water was given to each dog via syringe. […]

[3] = Stability of tiopronin in Beagle dog plasma; type: in vitro ADME
Procedure: (§3) Stability Testing: Finally, short term and long term stability of tiopronin in beagle dog plasma, pre-crashed plasma (plasma supernatant), and urine were assessed using two tiopronin concentrations (50 ng/mL or 500 ng/mL) under each of the following two conditions: (1) storage on the bench top for 4 hours and (2) frozen at −80° C. for up to one month. Samples were considered stable if their concentrations were within ±20% of nominal. These samples met acceptable criteria for stability and results are presented below, in Tables 5, 6, and 7, showing the % tiopronin remaining in Beagle dog plasma (Table 5), plasma supernatant (Table 6), and urine (Table 7).
as §3, with “12, 13,” for “5, 6,”, “14,” for “7,”, “12),” for “5),”, “13),” for “6),”, “14).” for “7).”

[4] = Stability of tiopronin in Beagle dog urine; type: in vitro ADME
Description: (§4) Samples were considered stable if their concentrations were within ±20% of nominal. These samples met acceptable criteria for stability and results are presented below, in Tables 5, 6, and 7, showing the % tiopronin remaining in Beagle dog plasma (Table 5), plasma supernatant (Table 6), and urine (Table 7).
as §4, with “12, 13,” for “5, 6,”, “14,” for “7,”, “12),” for “5),”, “13),” for “6),”, “14).” for “7).”

[5] = Stability of tiopronin in Beagle dog plasma supernatant (pre-crashed plasma); type: in vitro ADME
Procedure: as §3
as §3, with “12, 13,” for “5, 6,”, “14,” for “7,”, “12),” for “5),”, “13),” for “6),”, “14).” for “7).”

cystinuria patients = conditions: cited from earlier work
[6] = cited from earlier work
[7] = cited from earlier work; remark: listed apart in the source
[8] = Leg 1 (Q12H): PO single 30 mg/kg dose
[9] = Leg 2 (Q6H): PO two 15 mg/kg doses at 0 and 6 h
[10] = Leg 3 (Q3H): PO four 7.5 mg/kg doses at 0, 3, 6, 9 h
[11] = Leg 4: PO six 5 mg/kg doses at 0, 2, 4, 6, 8, 10 h
[12] = intraduodenal single 30 mg/kg dose, average, n=3 dogs
[13] = 50 ng/mL (low), bench top (RT) for 4 hours
[14] = 50 ng/mL (low), −80° C. freezer for 1 week
[15] = 500 ng/mL (high), bench top (RT) for 4 hours
[16] = 500 ng/mL (high), −80° C. freezer for 1 week

% of the dose (unchanged drug) found in urine [1, 8]: 19.9±8.51%
maximum plasma concentrations of free tiopronin [1, 8]: 11063 ± 3598 ng/mL
maximum plasma concentrations of total tiopronin [1, 8]: 27900 ± 8122 ng/mL
maximum plasma concentrations of total tiopronin ([1]; Leg 2 (Q6H): PO 30 mg/kg as two 15 mg/kg doses at 0 and 6 h): 23833 ± 5829 ng/mL
% of the dose (unchanged drug) found in urine [1, 9]: 37.5±14.5%
maximum plasma concentrations of free tiopronin [1, 9]: 8177 ± 2237 ng/mL
maximum plasma concentrations of total tiopronin ([1]; Leg 3 (Q3H): PO 30 mg/kg as four 7.5 mg/kg doses at 0, 3, 6, 9 h): 10437 ± 1201 ng/mL
% of the dose (unchanged drug) found in urine [1, 10]: 50.6±14.0%
maximum plasma concentrations of free tiopronin [1, 10]: 3143 ± 624 ng/mL
maximum plasma concentrations of total tiopronin ([1]; Leg 4: PO 30 mg/kg as six 5 mg/kg doses at 0, 2, 4, 6, 8, 10 h): 10297 ± 2199 ng/mL
time of maximum plasma concentrations of free tiopronin [1, 11]: 3 hours post dosing
% of the dose (unchanged drug) found in urine [1, 11]: 32.7±5.90%
maximum plasma concentrations of free tiopronin [1, 11]: 2323 ± 589 ng/mL
free (unbound) tiopronin in plasma over time ([1]; Legs 3 and 4 (Q3H and Q2H)): maintained
urinary recovery of tiopronin, comparison of four dosing schedules ([1]; Q3H vs Q12H, Q6H, Q2H, FIG. 13): best tiopronin recovery in urine
% of the dose (unchanged drug) found in urine ([2]; ID single 30 mg/kg dose, average, n=3 dogs): 30.5±19.9%
maximum plasma concentrations of free tiopronin [2, 12]: 1643 ± 105 ng/mL
maximum plasma concentrations of total tiopronin [2, 12]: 8640 ± 5522 ng/mL
urinary recovery of tiopronin, small intestine vs oral administration ([2]; single 30 mg/kg dose, FIG. 16): better tiopronin recovery in urine
% Tiopronin Remaining in Beagle Dog Plasma [3, 13]: 109%
% Tiopronin Remaining in Beagle Dog Plasma [3, 14]: 110%
% Tiopronin Remaining in Beagle Dog Plasma ([3]; 50 ng/mL (low), −80° C. freezer for 2 weeks): 112%
% Tiopronin Remaining in Beagle Dog Plasma ([3]; 50 ng/mL (low), −80° C. freezer for 4 weeks): 95.6%
% Tiopronin Remaining in Beagle Dog Plasma [3, 15]: 87.0%
% Tiopronin Remaining in Beagle Dog Plasma [3, 16]: 95.4%
% Tiopronin Remaining in Beagle Dog Plasma ([3]; 500 ng/mL (high), −80° C. freezer for 2 weeks): 92.8%
% Tiopronin Remaining in Beagle Dog Plasma ([3]; 500 ng/mL (high), −80° C. freezer for 4 weeks): 90.4%
% Tiopronin Remaining in Beagle Dog Urine ([4]; High (2500 ng/mL), bench top (RT) for 4 hours): 84.9%
% Tiopronin Remaining in Beagle Dog Urine ([4]; High (2500 ng/mL), −80° C. freezer for 1 week): 107%
% Tiopronin Remaining in Beagle Dog Urine ([4]; High (2500 ng/mL), −80° C. freezer for 2 week): 90.9%
% Tiopronin Remaining in Beagle Dog Urine ([4]; High (2500 ng/mL), −80° C. freezer for 4 week): 96.6%
% Tiopronin Remaining in Beagle Dog Urine ([4]; Low (250 ng/mL), bench top (RT) for 4 hours): 113%
% Tiopronin Remaining in Beagle Dog Urine ([4]; Low (250 ng/mL), −80° C. freezer for 1 week): 106%
% Tiopronin Remaining in Beagle Dog Urine ([4]; Low (250 ng/mL), −80° C. freezer for 2 week): 119%
% Tiopronin Remaining in Beagle Dog Urine ([4]; Low (250 ng/mL), −80° C. freezer for 4 week): 112%
% Tiopronin Remaining in Beagle Dog Plasma Supernatant [5, 13]: 113%
% Tiopronin Remaining in Beagle Dog Plasma Supernatant [5, 14]: 118%
% Tiopronin Remaining in Beagle Dog Plasma Supernatant ([5]; 50 ng/mL (low), −80° C. freezer for 2 week): 105%
% Tiopronin Remaining in Beagle Dog Plasma Supernatant ([5]; 50 ng/mL (low), −80° C. freezer for 4 week): 113%
% Tiopronin Remaining in Beagle Dog Plasma Supernatant [5, 15]: 105%
% Tiopronin Remaining in Beagle Dog Plasma Supernatant [5, 16]: 112%
% Tiopronin Remaining in Beagle Dog Plasma Supernatant ([5]; 500 ng/mL (high), −80° C. freezer for 2 week): 105%
% Tiopronin Remaining in Beagle Dog Plasma Supernatant ([5]; 500 ng/mL (high), −80° C. freezer for 4 week): 116%
Compound: CC(S)C(=O)NCC(=O)O (stereo not drawn) [tiopronin, alpha-mercaptopropionylglycine]
free (unbound) tiopronin in plasma over time ([1]; Legs 1 and 2 (Q12H and Q6H)): disappear from the plasma after a short period of time
cases/patients in which the drug is discontinued (cystinuria patients; due to adverse reactions, need for frequent dosing, poor efficacy (Pak et al., 1986)): about 30%
cystinuria patients in whom medication fails (continue forming stones) (cystinuria patients; human, in vivo): 85%

Compound: CC(C)(S)[C@@H](N)C(=O)O [D-penicillamine]
solubility of di-sulfide complex relative to cystine [6]: 50 times
patients with severe side effects limiting use / who cannot tolerate the drug ([7]; human, in vivo): 50-70%
bioavailability ([7]; patients with malabsorption states, presence of antacids, or after a large meal): dramatically decreases
